Measurements published in ChEMBL document CHEMBL1240427, “Chemistry around imidazopyrazine and ibuprofen: discovery of novel fatty acid amide hydrolase (FAAH) inhibitors” (Eur J Med Chem, 2010).

Tests used:
[1] = tested on: Caco-2; assay: Effect in human Caco-2 cells assessed as IL-1-beta-induced IL8 production relative to control at 50 uM after 24 hrs by ELISA; conditions: Caco-2, 24 h
[2] = tested on: Caco-2; assay: Effect in human Caco-2 cells assessed as IL-1-beta-induced IL8 production relative to control at 5 uM after 24 hrs by ELISA; conditions: Caco-2, 24 h

SMILES | level, % of control at 50 µM [1] [%] | level, % of control at 5 µM [2] [%]
CC(C)Cc1ccc(C(C)C(=O)n2nnc3ccccc32)cc1 (configuration not stated) | 76 | –
CC(C)Cc1ccc(C(C)C(=O)CCl)cc1 (configuration not stated) | 70 | –
Oc1ccc(-c2cn3c(O)c(-c4ccccc4)nc3cn2)cc1 | 65 | –
N=c1c(-c2ccccc2)nc2c[nH]c(-c3ccc(O)cc3)cn1-2 | 56 | 75
CC(C)Cc1ccc(C(C)C(=O)/C=N/O)cc1 (configuration not stated) | 290 | –
CON(C)C(=O)C(C)c1ccc(CC(C)C)cc1 (configuration not stated) | 55 | –
